This is an account of results in patent publication EP1216043B1, “RETARD FORM CONTAINING ALPHA-LIPOIC ACID (DERIVATIVES)” (priority 1999, dated 2001).

Structures are written as SMILES. Like-named read-outs stand apart in the source and are kept apart here.

The nature of series [1]: Diffusion study: diffusion of α-Liponsäure out of a dialysis vessel with/without Chitosan and Essigsäure.
From the text: Bei der vorliegenden Diffusionsstudie wurde der Einfluss von Chitosan auf das Diffusionsverhalten von α-Liponsäure untersucht.
The conditions of series [2]: cited from earlier work; for Cmax / F (Bioverfügbarkeit) / t1/2 / tmax: peroral, arithmetic mean; for absolute Bioverfügbarkeit: clinical studies, range over the dosage forms of Tabelle 1.
Setting [3] is: 200 mg (±)-Liponsäure als 200 mg-Tablette.
[4] abbreviates: 200 mg (±)-Liponsäure als 4x50 mg-Tabletten.
The mark [5] stands for this setting: 200 mg (±)-Liponsäure als Lösung.

Take `O=C(O)CCCCC1CCSS1` (racemic) [α-Liponsäure, 1,2-Dithiolan-3-pentansäure]: the “share of the Konzentrationsgleichgewicht reached” value in series [1] (in presence of Chitosan, without Essigsäure, ca. 5 hours) is 63,8 % ± 4,3. Moreover, the “time until Konzentrationsgleichgewicht der α-Liponsäure innerhalb und außerhalb des Dialysegefäßes was reached” value in series [1] (ohne Chitosan, printed as 'ca.') is reported as at most 5 Stunden. Also, the Plasma-Halbwertszeit entry in series [2] (after peroral administration) is recorded as “weniger als zwei Stunden”.

By Cmax is commonly meant the peak of the concentration-time curve. As for `O=C(O)CCCC[C@@H]1CCSS1` [R, R-(+)-α-Liponsäure], in series [2] (setting [3]), the maximum concentration (Cmax) was 490 ng/mL, the “F (Bioverfügbarkeit)” value is 24.1%, the t1/2 was 19.8 min and the tmax was 54 min. Also, in series [2] (setting [4]), the Cmax was 600 ng/mL, the “F (Bioverfügbarkeit)” value is given as 25.9%, the t1/2 is 42.6 min and the tmax is 42 min. Moreover, in series [2] (setting [5]), the Cmax was 2240 ng/mL, the “F (Bioverfügbarkeit)” value is given as 38.2%, the t1/2 is 14.4 min and the tmax was 12.6 min. Further, the “absolute Bioverfügbarkeit” value in series [2] is on record as 24.1 - 38.2%.

In the case of `O=C(O)CCCC[C@H]1CCSS1` [S, S-(-)-α-Liponsäure], in series [2] (setting [3]), the Cmax is 310 ng/mL, the “F (Bioverfügbarkeit)” value was 19.1%, the t1/2 was 19.8 min and the tmax is 54 min. Also, in series [2] (setting [4]), the Cmax was 380 ng/mL, the “F (Bioverfügbarkeit)” value is reported as 20.9%, the t1/2 was 49.2 min and the tmax is 42 min. For the same compound, in series [2] (setting [5]), the Cmax is 1320 ng/mL, the “F (Bioverfügbarkeit)” value was 28.3%, the t1/2 is 9 min and the tmax was 12.6 min. For the same compound, in series [2], the “absolute Bioverfügbarkeit” value is on record as 19.1 - 28.3%.
